Patent US7314861B2, “Melanin-concentrating hormone analogs” (priority 2001, dated 2008)
pEC50: −log10 of the molar value. Where a SMILES comes first, the peptide text is derived from it. Bridges are numbered along the chain shown (N, C = ends). [ ]: non-standard residue; d: D form. The star is where a group is joined. Pentanoyl(5-guanidino) = NC(N)=NCCCCC(=O)*

Assays:
human MCH-1R = human MCH-1R (Homo sapiens, UniProt Q99705); test: Aequorin bioluminescence functional assay, MCH-1R; settings: for MCH-1R Activation %: % Activation at 10 μM, aequorin functional assay
human MCH-1R, sequence (Q99705 whole entry): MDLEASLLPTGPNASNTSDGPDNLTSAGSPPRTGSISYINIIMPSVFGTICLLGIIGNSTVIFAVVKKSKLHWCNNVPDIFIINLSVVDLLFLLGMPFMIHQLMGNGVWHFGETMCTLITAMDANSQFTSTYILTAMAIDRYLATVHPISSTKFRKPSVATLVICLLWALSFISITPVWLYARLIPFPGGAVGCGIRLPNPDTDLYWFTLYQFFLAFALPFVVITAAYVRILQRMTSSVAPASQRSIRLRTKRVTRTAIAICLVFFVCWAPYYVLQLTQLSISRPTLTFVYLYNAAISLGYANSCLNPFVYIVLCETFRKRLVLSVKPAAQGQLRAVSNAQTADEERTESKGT
Method: The aequorin bioluminescence assay can be used to measure the activity of G protein-coupled receptors that couple through the Gα protein subunit family consisting of Gq and G11. Such coupling leads to phospholipase C activation, intracellular calcium mobilization and protein kinase C activation.
Following approximately 40 hours of expression the apo-aequorin in the cells was charged for 4 hours with coelenterazine (10 μM) under reducing conditions (300 μM reduced glutathione) in ECB buffer (140 mM NaCl, 20 mM KCl, 20 mM HEPES-NaOH [pH=7.4], 5 mM glucose, 1 mM MgCl2, 1 mM CaCl2, 0.1 mg/ml bovine serum albumin).
The cells were harvested, washed once in ECB medium and resuspended to 500,000 cells/ml. 100 μl of cell suspension (corresponding to 5×10^4 cells) was then injected into the test plate containing MCH or MCH analogs, and the integrated light emission was recorded over 30 seconds, in 0.5 second units. 20 μL of lysis buffer (0.1% final Triton X-100 concentration) was then injected and the integrated light emission recorded over 10 seconds, in 0.5 second units. The “fractional response” values for each well were calculated by taking the ratio of the integrated response to the initial challenge to the total integrated luminescence including the Triton X-100 lysis response.

human MCH-R2 = human MCH-R2 (Homo sapiens, UniProt Q969V1); test: Aequorin bioluminescence functional assay, MCH-2R; settings: for MCH-2R Activation %: % Activation at 10 μM; for MCH-2R Activation % / EC50: aequorin functional assay; for EC50: MCH-2R EC50 (nM), 293-AEQ17 cells; for selective activity at MCH-2R over MCH-1R: greater binding and/or activation at MCH-2R than at MCH-1R
human MCH-R2, sequence (Q969V1 whole entry): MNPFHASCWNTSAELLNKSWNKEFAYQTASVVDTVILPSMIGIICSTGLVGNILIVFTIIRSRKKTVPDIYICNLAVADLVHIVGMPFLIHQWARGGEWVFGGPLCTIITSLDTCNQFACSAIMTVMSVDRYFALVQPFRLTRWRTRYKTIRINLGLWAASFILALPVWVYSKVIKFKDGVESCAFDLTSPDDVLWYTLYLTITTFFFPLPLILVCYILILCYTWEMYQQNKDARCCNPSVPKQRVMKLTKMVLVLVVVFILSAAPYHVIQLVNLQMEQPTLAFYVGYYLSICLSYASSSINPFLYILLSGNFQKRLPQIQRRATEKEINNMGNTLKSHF

Row | SMILES | MCH-2R Activation % (human MCH-R2; Table 1) | MCH-1R Activation % (human MCH-1R; Table 1) | selective activity at MCH-2R over MCH-1R (human MCH-R2) | also measured
1 | CSCC[C@@H]1NC(=O)[C@@H](NC(=O)[C@H](CCCNC(=N)N)NC(C)=O)CSSC[C@@H](C(N)=O)NC(=O)[C@@H]2CCCN2C(=O)[C@H](CCCNC(=N)N)NC(=O)[C@H](Cc2ccc(O)cc2)NC(=O)[C@H](C(C)C)NC(=O)[C@H](CCCNC(=N)N)NC(=O)CNC(=O)[C@H](CC(C)C)NC1=O [compound 2] |  |  |  | MCH-1R Activation % (human MCH-1R; Table 2): 99%
2 | CC(=O)N[C@@H](CCCNC(=N)N)C(=O)N[C@H]1CSSC[C@@H](C(N)=O)NC(=O)[C@@H]2CCCN2C(=O)[C@H](CCCNC(=N)N)NC(=O)[C@H](Cc2ccc(O)cc2)NC(=O)[C@H](C(C)C)NC(=O)[C@H](CCCCNC(=N)N)NC(=O)[C@@H](C)NC(=O)[C@H](CC(C)C)NC(=O)[C@H](C)NC1=O [compound 38] | 49% | 20% |  | pEC50 (human MCH-1R): < 5.00
3 | CSCC[C@@H]1NC(=O)[C@@H](NC(=O)[C@H](CCCNC(=N)N)NC(=O)[C@H](CC(C)C)NC(=O)[C@H](CCSC)NC(=O)[C@H](CC(=O)O)NC(=O)[C@H](Cc2ccccc2)NC(=O)[C@@H](N)CC(=O)O)CSSC[C@@H](C(=O)N[C@@H](C)C(=O)N[C@@H](CCC(N)=O)C(=O)N[C@H](C(=O)O)C(C)C)NC(=O)[C@@H]2CCCN2C(=O)[C@H](CCCNC(=N)N)NC(=O)[C@H](Cc2ccc(O)cc2)NC(=O)[C@H](C(C)C)NC(=O)[C@H](CCCNC(=N)N)NC(=O)CNC(=O)[C@H](CC(C)C)NC1=O [compound 54] (H-DFDMLRCMLGRVYRPCAQV-OH; disulfide 7-16; N-terminus and C-terminus assumed) |  |  |  | MCH-2R Activation % (human MCH-R2; Table 3): 95%; MCH-1R Activation % (human MCH-1R; Table 3): 100%
4 | CSCC[C@@H]1NC(=O)[C@@H](NC(=O)[C@H](CCCNC(=N)N)NC(C)=O)CSSC[C@@H](C(N)=O)NC(=O)[C@@H]2CCCN2C(=O)[C@H](CCCNC(=N)N)NC(=O)[C@H](Cc2ccc(O)cc2)NC(=O)[C@H](C(C)C)NC(=O)[C@H](CCCNC(=N)N)NC(=O)C(C)(C)NC(=O)[C@H](CC(C)C)NC1=O [compound 11] | 104% | 22% | selectively active | EC50 (human MCH-R2; Table 1): 24 nM
5 | CSCC[C@@H]1NC(=O)[C@@H](NC(=O)[C@H](CCCNC(=N)N)NC(C)=O)CSSC[C@@H](C(N)=O)NC(=O)[C@@H]2CCCN2C(=O)[C@H](CCCNC(=N)N)NC(=O)[C@H](Cc2ccc(O)cc2)NC(=O)[C@H](C(C)C)NC(=O)[C@H](CCCNC(=N)N)NC(=O)[C@@H](Cc2ccccc2)NC(=O)[C@H](CC(C)C)NC1=O [compound 17] | 102% | 5% | selectively active | EC50 (human MCH-R2; Table 1): 25 nM; pEC50 (human MCH-1R): < 5.00
6 | CSCC[C@@H]1NC(=O)[C@@H](NC(=O)CCCCNC(=N)N)CSSC[C@@H](C(N)=O)NC(=O)[C@@H]2CCCN2C(=O)[C@H](CCCNC(=N)N)NC(=O)[C@H](Cc2ccc(O)cc2)NC(=O)[C@H](C(C)C)NC(=O)[C@H](CCCNC(=N)N)NC(=O)[C@@H](C)NC(=O)[C@H](CC(C)C)NC1=O [compound 34] ({Pentanoyl(5-guanidino)}-CML[dA]RVYRPC-NH2; disulfide 1-10) |  |  | selectively active | 
7 | CSCC[C@@H]1NC(=O)[C@@H](NC(C)=O)CSSC[C@@H](C(N)=O)NC(=O)[C@@H]2CCCN2C(=O)[C@H](CCCNC(=N)N)NC(=O)[C@H](Cc2ccc(O)cc2)NC(=O)[C@H](C(C)C)NC(=O)[C@H](CCCNC(=N)N)NC(=O)CNC(=O)[C@H](CC(C)C)NC1=O [compound 3] |  | 6.5% |  | 
